Results published in PubChem BioAssay (NCI).
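Five compound concentrations were applied to cells in 96-well plates for 48 hours; endpoints were derived by simple linear interpolation of the resulting dose-response curve. At the GI50, growth is halved. The concentration for full growth arrest is given as TGI.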

How the values were obtained:
Test in all cases: NCI tumour cell line growth inhibition, 48 h
[1] = system: T-47D breast
[2] = system: KM12 colon
[3] = system: SF-295 CNS
[4] = system: SK-MEL-5 melanoma
[5] = system: SNB-19 CNS
[6] = system: HL-60(TB) leukemia
[7] = system: A549 NSCLC
[8] = system: UO-31 renal
[9] = system: NCI-H460 lung
[10] = system: MDA-MB-231 breast
[11] = system: SW-620 colon
[12] = system: UACC-257 melanoma
[13] = system: SK-OV-3 ovarian
[14] = system: NCI-H23 lung
[15] = system: SNB-75 CNS
[16] = system: EKVX NSCLC
[17] = system: HOP-92 NSCLC
[18] = system: A498 renal
[19] = system: NCI-H226 lung
[20] = system: CCRF-CEM leukemia
[21] = system: HT29 colon
[22] = system: NCI-H522 lung
[23] = system: DU-145 prostate
[24] = system: PC-3 prostate
[25] = system: OVCAR-4 ovarian
[26] = system: NCI/ADR-RES ovarian
[27] = system: SK-MEL-2 melanoma
[28] = system: SF-539 CNS
[29] = system: CAKI-1 renal
[30] = system: OVCAR-5 ovarian
[31] = system: COLO 205 colon
[32] = system: U251 CNS
[33] = system: RPMI-8226 leukemia
[34] = system: IGROV1 ovarian
[35] = system: HS 578T breast
[36] = system: MDA-MB-435
[37] = system: MALME-3M melanoma
[38] = system: ACHN renal
[39] = system: UACC-62 melanoma
[40] = system: RXF 393 renal
[41] = system: SK-MEL-28 melanoma
[42] = system: M14 melanoma
[43] = system: SR leukemia
[44] = system: SN12C renal
[45] = system: OVCAR-3 ovarian
[46] = system: SF-268 CNS
[47] = system: HCT-116 colon
[48] = system: HOP-62 NSCLC
[49] = system: HCT-15 colon
[50] = system: 786-0 renal
[51] = system: TK-10 renal
[52] = system: LOX IMVI melanoma
[53] = system: HCC-2998 colon
[54] = system: MOLT-4 leukemia
[55] = system: MCF7 breast
[56] = system: OVCAR-8 ovarian
[57] = system: K-562 leukemia
[58] = system: BT-549 breast

CN(C)CCNC(=O)c1ccc(-c2nc3ccc4[nH]ncc4c3c3c2C2CCC3C2)cc1 (stereo unspecified)
GI50 [1]: 2250 nM | TGI [1]: 7860 nM | GI50 [2]: 534 nM | TGI [2]: 3360 nM | GI50 [3]: 2010 nM | TGI [3]: 5390 nM | GI50 [4]: 1490 nM | TGI [4]: 4570 nM | GI50 [5]: 2690 nM | TGI [5]: 9810 nM | GI50 [6]: 388 nM | TGI [6]: 2520 nM | GI50 [7]: 1650 nM | TGI [7]: 12800 nM | GI50 [8]: 2030 nM | TGI [8]: 5180 nM | GI50 [9]: 1560 nM | TGI [9]: 4790 nM | GI50 [10]: 1640 nM | TGI [10]: 4110 nM | GI50 [11]: 473 nM | TGI [11]: 5160 nM | GI50 [12]: 3070 nM | TGI [12]: 9950 nM | GI50 [13]: 348 nM | TGI [13]: 4280 nM | GI50 [14]: 1630 nM | TGI [14]: 5940 nM | GI50 [15]: 341 nM | TGI [15]: 1140 nM | GI50 [16]: 1720 nM | TGI [16]: 6910 nM | GI50 [17]: 1740 nM | TGI [17]: 4250 nM | GI50 [18]: 220 nM | TGI [18]: 1220 nM | GI50 [19]: 1280 nM | TGI [19]: 5430 nM | GI50 [20]: 1010 nM | TGI [20]: 10100 nM | GI50 [21]: 1840 nM | TGI [21]: 13000 nM | GI50 [22]: 1250 nM | TGI [22]: 4330 nM | GI50 [23]: 965 nM | TGI [23]: 6000 nM | GI50 [24]: 1240 nM | TGI [24]: 7220 nM | GI50 [25]: 1600 nM | TGI [25]: 5530 nM | GI50 [26]: 8300 nM | TGI [26]: 26800 nM | GI50 [27]: 1550 nM | TGI [27]: 3740 nM | GI50 [28]: 702 nM | TGI [28]: 2390 nM | GI50 [29]: 930 nM | TGI [29]: 5250 nM | GI50 [30]: 3010 nM | TGI [30]: 9850 nM | GI50 [31]: 569 nM | TGI [31]: 4190 nM | GI50 [32]: 1170 nM | TGI [32]: 8890 nM | GI50 [33]: 1350 nM | TGI [33]: 4600 nM | GI50 [34]: 1520 nM | TGI [34]: 6200 nM | GI50 [35]: 494 nM | TGI [35]: 2620 nM | GI50 [36]: 1280 nM | TGI [36]: 4450 nM | GI50 [37]: 1670 nM | TGI [37]: 3960 nM | GI50 [38]: 564 nM | TGI [38]: 6910 nM | GI50 [39]: 898 nM | TGI [39]: 3720 nM | GI50 [40]: 267 nM | TGI [40]: 1180 nM | GI50 [41]: 1840 nM | TGI [41]: 5640 nM | GI50 [42]: 809 nM | TGI [42]: 2750 nM | GI50 [43]: 254 nM | TGI [43]: 2650 nM | GI50 [44]: 1820 nM | TGI [44]: 6880 nM | GI50 [45]: 1710 nM | TGI [45]: 5900 nM | GI50 [46]: 967 nM | TGI [46]: 3300 nM | GI50 [47]: 432 nM | TGI [47]: 9130 nM | GI50 [48]: 1290 nM | TGI [48]: 5700 nM | GI50 [49]: 2440 nM | TGI [49]: 11400 nM | GI50 [50]: 882 nM | TGI [50]: 4920 nM | GI50 [51]: 723 nM | TGI [51]: 8020 nM | GI50 [52]: 1190 nM | TGI [52]: 2790 nM | GI50 [53]: 1740 nM | TGI [53]: 5640 nM | GI50 [54]: 1100 nM | TGI [54]: 5560 nM | GI50 [55]: 889 nM | TGI [55]: 6700 nM | GI50 [56]: 1400 nM | TGI [56]: 9810 nM | GI50 [57]: 1290 nM | TGI [57]: 9400 nM | GI50 [58]: 1250 nM | TGI [58]: 2930 nM
